# Measurements from the NIST ThermoML archive (doi:10.1021/je034223r).
# ± gives the expanded uncertainty stated by the source.
# Key:
# [1] = 298.15 K; 101.33 kPa; Liquid; Vibrating tube method
# [2] = molar heat capacity at constant pressure; conditions: 298.15 K; 101.33 kPa; Liquid; Flow calorimetry
# [3] = refractive index (Na D-line) (dimensionless); conditions: 298.15 K; 101.33 kPa; Liquid; Standard Abbe refractometry
# [4] = excess molar enthalpy (molar enthalpy of mixing); xn = mol fraction of the nth substance listed; conditions: 298.15 K, 101.3 kPa, Liquid, Flow calorimetry
# [5] = xn = mol fraction of the nth substance listed; conditions: 298.15 K, 101.3 kPa, Liquid, vibrating tube
# [6] = refractive index (Na D-line) (dimensionless); xn = mol fraction of the nth substance listed; conditions: 298.15 K, 101.3 kPa, Liquid, refractometer
# [7] = heat capacity at constant pressure per volume; xn = mol fraction of the nth substance listed; conditions: 298.15 K, 101.3 kPa, Liquid, Flow calorimetry
compound,measurement,setting,value
"C1COCO1 [1,3-dioxolane]",mass density,[1],1058.67 ± 0.54 kg/m3
same,molar heat capacity at constant pressure,[2],121.66 ± 0.25 J/K/mol
same,refractive index,[3],1.39797 ± 0.00075
"C1COCO1 [1,3-dioxolane] + O=C1CCCCC1",excess molar enthalpy,[4]; x1 = 0.1,0.0153 ± 0.000335 kcal/mol
same,excess molar enthalpy,[4]; x1 = 0.15,0.0214 ± 0.000359 kcal/mol
same,excess molar enthalpy,[4]; x1 = 0.2,0.0265 ± 0.000406 kcal/mol
same,excess molar enthalpy,[4]; x1 = 0.25,0.0309 ± 0.00043 kcal/mol
same,excess molar enthalpy,[4]; x1 = 0.3,0.0348 ± 0.000454 kcal/mol
same,excess molar enthalpy,[4]; x1 = 0.35,0.0382 ± 0.000478 kcal/mol
same,excess molar enthalpy,[4]; x1 = 0.4,0.0399 ± 0.000502 kcal/mol
same,excess molar enthalpy,[4]; x1 = 0.45,0.0409 ± 0.000502 kcal/mol
same,excess molar enthalpy,[4]; x1 = 0.5,0.041 ± 0.000502 kcal/mol
same,excess molar enthalpy,[4]; x1 = 0.55,0.0404 ± 0.000502 kcal/mol
same,excess molar enthalpy,[4]; x1 = 0.6,0.039 ± 0.000478 kcal/mol
same,excess molar enthalpy,[4]; x1 = 0.65,0.0369 ± 0.000478 kcal/mol
same,excess molar enthalpy,[4]; x1 = 0.7,0.0341 ± 0.000454 kcal/mol
same,excess molar enthalpy,[4]; x1 = 0.75,0.0305 ± 0.00043 kcal/mol
same,excess molar enthalpy,[4]; x1 = 0.8,0.0261 ± 0.000406 kcal/mol
same,excess molar enthalpy,[4]; x1 = 0.85,0.0208 ± 0.000359 kcal/mol
same,excess molar enthalpy,[4]; x1 = 0.9,0.0148 ± 0.000335 kcal/mol
CCCCCC(C)=O [2-heptanone] + C1COCO1,mass density,[5]; x2 = 0.1058,824.42 ± 0.8 kg/m3
same,mass density,[5]; x2 = 0.1274,827.37 ± 0.79 kg/m3
same,mass density,[5]; x2 = 0.244,844.52 ± 0.76 kg/m3
same,mass density,[5]; x2 = 0.3122,855.72 ± 0.74 kg/m3
same,mass density,[5]; x2 = 0.3693,865.84 ± 0.72 kg/m3
same,mass density,[5]; x2 = 0.3985,871.31 ± 0.71 kg/m3
same,mass density,[5]; x2 = 0.4258,876.6 ± 0.7 kg/m3
same,mass density,[5]; x2 = 0.4304,877.56 ± 0.7 kg/m3
same,mass density,[5]; x2 = 0.4313,877.69 ± 0.7 kg/m3
same,mass density,[5]; x2 = 0.4768,887.06 ± 0.69 kg/m3
same,mass density,[5]; x2 = 0.5071,893.63 ± 0.68 kg/m3
same,mass density,[5]; x2 = 0.5125,894.83 ± 0.68 kg/m3
same,mass density,[5]; x2 = 0.5141,895.15 ± 0.68 kg/m3
same,mass density,[5]; x2 = 0.536,900.1 ± 0.67 kg/m3
same,mass density,[5]; x2 = 0.5433,901.8 ± 0.67 kg/m3
same,mass density,[5]; x2 = 0.5928,913.69 ± 0.66 kg/m3
same,mass density,[5]; x2 = 0.6302,923.33 ± 0.65 kg/m3
same,mass density,[5]; x2 = 0.6308,923.51 ± 0.64 kg/m3
same,mass density,[5]; x2 = 0.667,933.32 ± 0.63 kg/m3
same,mass density,[5]; x2 = 0.7125,946.48 ± 0.62 kg/m3
same,mass density,[5]; x2 = 0.785,969.65 ± 0.6 kg/m3
same,mass density,[5]; x2 = 0.8627,997.8 ± 0.58 kg/m3
same,mass density,[5]; x2 = 0.9533,1036.16 ± 0.55 kg/m3
same,refractive index,[6]; x2 = 0.0796,1.4064 ± 0.00039
same,refractive index,[6]; x2 = 0.1592,1.40592 ± 0.00037
same,refractive index,[6]; x2 = 0.2381,1.40542 ± 0.00036
same,refractive index,[6]; x2 = 0.315,1.40489 ± 0.00034
same,refractive index,[6]; x2 = 0.3582,1.40459 ± 0.00033
same,refractive index,[6]; x2 = 0.3981,1.4043 ± 0.00033
same,refractive index,[6]; x2 = 0.437,1.404 ± 0.00032
same,refractive index,[6]; x2 = 0.4767,1.4037 ± 0.00031
same,refractive index,[6]; x2 = 0.5147,1.4034 ± 0.0003
same,refractive index,[6]; x2 = 0.5562,1.40305 ± 0.00029
same,refractive index,[6]; x2 = 0.5892,1.40276 ± 0.00029
same,refractive index,[6]; x2 = 0.6363,1.40234 ± 0.00028
same,refractive index,[6]; x2 = 0.6694,1.40202 ± 0.00027
same,refractive index,[6]; x2 = 0.7034,1.40169 ± 0.00027
same,refractive index,[6]; x2 = 0.7886,1.40078 ± 0.00025
same,refractive index,[6]; x2 = 0.8717,1.39979 ± 0.00023
same,refractive index,[6]; x2 = 0.9502,1.39873 ± 0.00022
same,heat capacity,[7]; x2 = 0.0872,1721500 ± 2700 J/K/m3
same,heat capacity,[7]; x2 = 0.1656,1720700 ± 2700 J/K/m3
same,heat capacity,[7]; x2 = 0.2372,1720000 ± 2700 J/K/m3
same,heat capacity,[7]; x2 = 0.3167,1719700 ± 2700 J/K/m3
same,heat capacity,[7]; x2 = 0.3868,1719900 ± 2700 J/K/m3
same,heat capacity,[7]; x2 = 0.4649,1720200 ± 2700 J/K/m3
same,heat capacity,[7]; x2 = 0.541,1721000 ± 2700 J/K/m3
same,heat capacity,[7]; x2 = 0.6252,1722500 ± 2700 J/K/m3
same,heat capacity,[7]; x2 = 0.6995,1724400 ± 2700 J/K/m3
same,heat capacity,[7]; x2 = 0.7807,1726700 ± 2700 J/K/m3
same,heat capacity,[7]; x2 = 0.8584,1729700 ± 2700 J/K/m3
same,excess molar enthalpy,[4]; x2 = 0.1,0.028 ± 0.000478 kcal/mol
same,excess molar enthalpy,[4]; x2 = 0.15,0.041 ± 0.000574 kcal/mol
same,excess molar enthalpy,[4]; x2 = 0.2,0.0538 ± 0.000669 kcal/mol
same,excess molar enthalpy,[4]; x2 = 0.25,0.0658 ± 0.000741 kcal/mol
same,excess molar enthalpy,[4]; x2 = 0.3,0.0764 ± 0.000837 kcal/mol
same,excess molar enthalpy,[4]; x2 = 0.35,0.0857 ± 0.000908 kcal/mol
same,excess molar enthalpy,[4]; x2 = 0.4,0.0936 ± 0.000956 kcal/mol
same,excess molar enthalpy,[4]; x2 = 0.45,0.0993 ± 0.001 kcal/mol
same,excess molar enthalpy,[4]; x2 = 0.5,0.1031 ± 0.00103 kcal/mol
same,excess molar enthalpy,[4]; x2 = 0.55,0.105 ± 0.00105 kcal/mol
same,excess molar enthalpy,[4]; x2 = 0.6,0.104 ± 0.00105 kcal/mol
same,excess molar enthalpy,[4]; x2 = 0.65,0.102 ± 0.00103 kcal/mol
same,excess molar enthalpy,[4]; x2 = 0.7,0.0972 ± 0.001 kcal/mol
same,excess molar enthalpy,[4]; x2 = 0.75,0.0894 ± 0.000932 kcal/mol
same,excess molar enthalpy,[4]; x2 = 0.8,0.0793 ± 0.00086 kcal/mol
same,excess molar enthalpy,[4]; x2 = 0.85,0.066 ± 0.000789 kcal/mol
same,excess molar enthalpy,[4]; x2 = 0.9,0.0486 ± 0.000669 kcal/mol
